The structures appear in SMILES notation. Values after ≈ are worked out from the molar mass of the structure shown. Read-outs that look alike come from different tables or passages of the source. Some results are limits rather than exact numbers.

Results on one molecule are retold here after publication PMC4794209, “Preformulation Studies on Piperlongumine” (PLoS ONE, 2016).

This data set can be described thus: Solubility studies (excess drug, agitation at least 24 h, HPLC). The data set is classed as physicochemical. The method, then:
Solubility of piperlongumine was determined in purified water and the following cosolvent and surfactant systems: 5, 15, 30% (v/v) acetonitrile; 5, 15, 30, 50, 100% (v/v) of polyethylene glycol 400 (PEG 400), ethanol, glycerin and propylene glycol; 3, 7, 10% (w/v) of Tween 80; 2.5, 5, 10% (w/v) of Cremophor Rh 40; and a solution composition of 10% ethanol: 40% PEG 400 (w/v). Additionally, the complexing agents, sulfobutyl ether β-cyclodextrin sodium salt and hydroxyl-propyl-β-cyclodextrin, were examined at concentrations of 5, 10, 20, 40% (w/v).
An excess quantity of raw drug crystals were placed in a known volume of each medium in closed, light protected glass vials and allowed to agitate for at least 24 hours at ambient temperature. Samples were visually inspected to ensure that solid drug was still in excess and then filtered through a 0.2 μm PTFE filter. The filtrate was assayed via the previously described HPLC method and the concentration of piperlongumine in solution was determined.

One may read the solubility as the dissolved amount per volume that the medium holds. Turning to `COc1cc(/C=C/C(=O)N2CCC=CC2=O)cc(OC)c1OC` [piperlongumine, 1-[(2E)-3-(3,4,5-trimethoxyphenyl)prop-2-enoyl]-1,2,5,6-tetrahydropyridin-2-one], the solubility runs as follows: (10% (w/v) Cremophor Rh 40, aqueous with cosolvent or surfactant or cyclodextrin, thermodynamic from solid, 10% (w/v) Cremophore Rh 40, read-out: Solubility) about 550 µg/mL (≈ 1.73 mM); (10% (w/v) Tween 80, aqueous with cosolvent or surfactant or cyclodextrin, thermodynamic from solid, 10% Tween 80, read-out: Solubility) about 700 µg/mL (≈ 2.21 mM); (10% ethanol: 40% PEG 400 (w/v), aqueous with cosolvent or surfactant or cyclodextrin, thermodynamic from solid, read-out: Solubility) about 1700 µg/mL (≈ 5.36 mM); (10% ethanol: 40% PEG 400 (w/v), read-out: Solubility) 1000 µg/mL (≈ 3.15 mM); (20% (w/v) hydroxypropyl-β-cyclodextrin, aqueous with cosolvent or surfactant or cyclodextrin, thermodynamic from solid, read-out: Solubility) about 1000 µg/mL (≈ 3.15 mM); (20% (w/v) hydroxypropyl-β-cyclodextrin, read-out: Solubility) 1000 µg/mL (≈ 3.15 mM). For the same molecule, the solubility is, setting by setting: (20% (w/v) sulfobutyl ether β-cyclodextrin, aqueous with cosolvent or surfactant or cyclodextrin, thermodynamic from solid, read-out: Solubility) about 1000 µg/mL (≈ 3.15 mM); (30% (v/v) acetonitrile, aqueous with cosolvent or surfactant or cyclodextrin, thermodynamic from solid, 30% acetonitrile, read-out: Solubility) 1600 µg/mL (≈ 5.04 mM); (50% (v/v) PEG 400, aqueous with cosolvent or surfactant or cyclodextrin, thermodynamic from solid, 50% PEG 400, read-out: Solubility) about 1100 µg/mL (≈ 3.47 mM); (50% (v/v) ethanol, aqueous with cosolvent or surfactant or cyclodextrin, thermodynamic from solid, 50% ethanol, read-out: Solubility) about 2300 µg/mL (≈ 7.25 mM); (100% PEG 400, organic solvent or mixture, thermodynamic from solid, pure PEG 400, read-out: Solubility) about 22000 µg/mL (≈ 69.3 mM); (100% ethanol, organic solvent or mixture, thermodynamic from solid, pure ethanol, read-out: Solubility) about 11000 µg/mL (≈ 34.7 mM). The solubility was about 26 µg/mL (≈ 0.0819 mM) (purified water, ambient temperature, read-out: Solubility in water (intrinsic solubility)) and 26 ± 2.9 µg/mL (≈ 0.0819 mM) (thermodynamic from solid, purified water, ambient temperature, read-out: Solubility in water (intrinsic solubility)). Moreover, under “30% acetonitrile vs water”, the “Fold improvement in solubility” value turned out to be 63 fold. The molecule also came in with a Concentrations afforded (cosolvents and cyclodextrins) of at least 1000 µg/mL.
